According to patent US20260315452A1, “PROTEASE INHIBITORS AND USES THEREOF” (priority 2023, published 2026):

Key:
[1] = system: SARS-CoV-2; test: Anti-SARS-CoV-2 activity in A549 cells expressing the human ACE2 receptor (inhibition of SARS-CoV-2 replication); type: cell-based; settings: for antiviral potency in A549 cells in comparison with compound Ref-2: versus Ref-2 (FIG. 7); for EC50: Severe acute respiratory syndrome coronavirus 2, A549-ACE2, 24 h, read-out: Antiviral Activity (EC50)
[2] = biological target: T1, SARS-CoV-2 3CLpro (Severe acute respiratory syndrome coronavirus 2, UniProt P0DTD1); test: biochemical; settings: inhibition of SARS-CoV-2 3CLpro; 15 nM 3CLpro, 25 μM fluorogenic substrate, 37° C.; read-out: Inhibitory Activity (IC50)
[3] = biological target: T1, SARS-CoV-2 3CLpro; test: Co-crystal structure with SARS-CoV-2 3CLpro; type: binding; settings: co-crystal with SARS-CoV-2 3CLpro
[4] = biological target: T1, SARS-CoV-2 3CLpro; type: binding; settings: ITC, 25° C., pH 7.4; versus Ref-2 (compound P2)
[5] = Plasma protein binding (PPB) by equilibrium dialysis; type: in vitro ADME; settings: human and mouse plasma, 4 hours, 37° C., versus Ref-2
Method: The binding of compounds Ref-2, 86, 97, 98 and 170 to human and mouse plasma were measured using equilibrium dialysis. A loading matrix was prepared by diluting of a 400 μM stock of each of the compounds in DMSO by the plasma matrix. To prepare the time zero (To) samples to be used for recovery determination, 50 μL of the loading matrix were transferred in triplicate to the sample collection plate, immediately matched with opposite blank buffer to obtain a final volume of 100 μL of 1:1 matrix/dialysis buffer (v/v) in each well, followed by the addition of 500 μL of stop solution (200 ng/mL of tolbutamide, 200 ng/mL of labetalol, and 50 ng/mL of metformin in acetonitrile) and then stored at 2-8° C. pending further processes along with other post-dialysis samples. To load the dialysis device, 150 μL of the loading matrix and 150 μL of the dialysis buffer were transferred to the donor side and the receiver side of each well, respectively. The dialysis plate was placed in a humidified incubator at 37° C. with 5% CO2 on a shaking platform that rotated slowly (about 100 rpm) for 4 hours, then 50 μL of samples were taken from both the buffer side and the matrix side, and transferred into new 96-well plates. Each sample was mixed with an equal volume of opposite blank buffer (or matrix) to reach a final volume of 100 μL, followed by the addition of 500 µL of stop solution. The mixture was vortexed and centrifuged at 4000 rpm for about 20 minutes, then […] of the supernatant of each sample was removed for LC-MS/MS analysis. The single blank samples were prepared by transferring 50 μL of blank matrix to a 96 well plate and adding 50 μL of blank PBS buffer to each well. The blank plasma must match the species of plasma used in the plasma side of the well. Then the matrix-matched samples were further processed by adding 500 μL of stop solution, following the same sample processing method as the dialysis samples. The % Unbound, % Bound and % Recovery were calculated using the following equations: […]
in which F is the analyte concentration or peak area ratio of analyte/internal standard on the buffer (receiver) side of the membrane, T is the analyte concentration or peak area ratio of analyte/internal standard on the matrix (donor) side of the membrane, and T0 is the analyte concentration or the peak area ratio of analyte/internal standard in the loading matrix sample at time zero.

[6] = system: CYP1A2, CYP2C9, CYP2C19, CYP2D6 and CYP3A4; test: CYP inhibition evaluation in human liver microsomes; type: in vitro ADME; settings: CYP1A2, 2C9, 2C19, 2D6, 3A4, up to 50 μM
Method: 20 μL of the substrate solutions of CYP1A2, CYP2C9, CYP2C19, CYP2D6 and CYP3A4 were each mixed with […] of the test compounds (final concentrations: 50 μM, 15 μM, 5 μM, 1.5 μM, 0.5 μM, 0.15 μM, 0.05 μM, 0 μM), followed by the addition of 158 μL of the HLM (Human liver microsome) working solution. Each of the mixtures was incubated at 37° C. for 10 minutes, and then mixed with 20 μL of NADPH cofactor, followed by incubation at 37° C. for additional 10 minutes. The reactions were terminated by adding 400 μL cold stop solution (200 ng/mL Tolbutamide and Labetalol in ACN). The samples are centrifuged at 4000 rpm for 20 minutes to precipitate protein. Next, 200 μL of the supernatant of each sample was transferred to 100 μL HPLC water and shaken for 10 minutes, and then analyzed by LC/MS/MS.

[7] = system: Omicron SARS-CoV-2; settings: FIG. 8, with Ref-2

Compound | antiviral potency in A549 cells in comparison with compound Ref-2 [1] | EC50 [1] [nM] | IC50 [2] [nM] | binding site/mode in crystal structure [3] | binding affinity (dissociation constant, Kd) in comparison with compound Ref-2 [4] | free PPB ratio in comparison with compound Ref-2 [5] | effect on different CYP isoforms [6] | activity against Omicron SARS-CoV-2 in Caco-2 cells [7]
CNC(=O)c1cc(Br)cc([N+](=O)[O-])c1N[C@H]1CN(C(=O)c2cncc3ccccc23)CCC1(F)F [Compound 19, (S)-5-bromo-2-((4,4-difluoro-1-(isoquinoline-4-carbonyl)piperidin-3-yl)amino)-N-methyl-3-nitrobenzamide] | better antiviral potency | < 100 | < 100 | bound into the catalytic pocket of 3CLpro | higher binding affinity |  |  | 
CNC(=O)c1cc(Cl)cc([N+](=O)[O-])c1N[C@H]1CN(C(=O)c2cncc3ccn(C)c23)CCC1(F)F [Compound 86, (S)-5-chloro-2-((4,4-difluoro-1-(1-methyl-1H-pyrrolo [3,2-c]pyridine-7-carbonyl)piperidin-3-yl)amino)-N-methyl-3-nitrobenzamide] |  |  | < 100 |  |  | better free PPB ratios |  | 
CNC(=O)c1cc(Cl)cc([N+](=O)[O-])c1N[C@H]1CN(C(=O)c2cncc3cccnc23)CC[C@@H]1F [Compound 170, 5-chloro-2-(((3S, 4S)-4-fluoro-1-(1,6-naphthyridine-8-carbonyl)piperidin-3-yl)amino)-N-methyl-3-nitrobenzamide] |  |  | < 100 |  |  | better free PPB ratios | little effect on different CYP isoforms | 
O=C(NC1CC(F)(F)C1)c1cc(Br)cc([N+](=O)[O-])c1N[C@H]1CN(C(=O)c2cncc3ccccc23)CC12CC2 [Compound 30, (R)-5-bromo-N-(3,3-difluorocyclobutyl)-2-((5-(isoquinoline-4-carbonyl)-5-azaspiro[2.4]heptan-7-yl)amino)-3-nitrobenzamide] | better antiviral potency | < 100 | < 100 |  | higher binding affinity |  |  | 
O=C(N[C@@H]1CCOC1)c1cc(Cl)cc([N+](=O)[O-])c1N[C@H]1CN(C(=O)c2cncc3ccccc23)CCC1(F)F [Compound 142, 5-chloro-2-(((S)-4,4-difluoro-1-(isoquinoline-4-carbonyl)piperidin-3-yl)amino)-3-nitro-N-((R)-tetrahydrofuran-3-yl)benzamide] |  | < 100 | < 100 |  |  |  |  | 
CC(C)C(Nc1c(C(=O)N[C@H](C)C(F)(F)F)cc(Br)cc1[N+](=O)[O-])C1CN(C(=O)c2cncc3ccccc23)C1 (stereo partly drawn) [Compound 124, 5-bromo-2-((1-(1-(isoquinoline-4-carbonyl)azetidin-3-yl)-2-methylpropyl)amino)-3-nitro-N-((R)-1,1,1-trifluoropropan-2-yl)benzamide] |  | < 100 | < 100 |  |  |  |  | 
O=C(NC1CC(F)(F)C1)c1cc(Br)cc(C(F)(F)F)c1N[C@@H]1COCC[C@@H]1NC(=O)c1cncc2cc(F)ccc12 [Compound 80, N-((3S, 4S)-3-((4-bromo-2-((3,3-difluorocyclobutyl)carbamoyl)-6-(trifluoromethyl)phenyl)amino)tetrahydro-2H-pyran-4-yl)-7-fluoroisoquinoline-4-carboxamide] |  | 100 to 1000 | 100 to 1000 |  |  |  |  | 
O=C(NC1CC(F)(F)C1)c1cc(Cl)cc([N+](=O)[O-])c1N[C@@H]1COCC[C@@H]1NC(=O)c1cncc2ccccc12 [Compound 29, N-((3S, 4S)-3-((4-chloro-2-((3,3-difluorocyclobutyl)carbamoyl)-6-nitrophenyl)amino)tetrahydro-2H-pyran-4-yl)isoquinoline-4-carboxamide] | better antiviral potency | < 100 | < 100 |  |  |  |  | 
CNC(=O)c1cc(Cl)cc([N+](=O)[O-])c1N[C@H]1CN(C(=O)c2cncc3cccnc23)CCC1(F)F [Compound 98, (S)-5-chloro-2-((4,4-difluoro-1-(1,6-naphthyridine-8-carbonyl)piperidin-3-yl)amino)-N-methyl-3-nitrobenzamide] |  | < 100 | < 100 | bind to 3CLpro similar to that of Compound 19 |  | better free PPB ratios | little effect on different CYP isoforms | stronger activity against Omicron SARS-CoV-2
CNC(=O)c1cc(Cl)cc([N+](=O)[O-])c1N[C@H]1CN(C(=O)c2cncc3ccncc23)CCC1(F)F [Compound 97, (S)-5-chloro-2-((4,4-difluoro-1-(2,6-naphthyridine-4-carbonyl)piperidin-3-yl)amino)-N-methyl-3-nitrobenzamide] |  |  | < 100 |  |  | better free PPB ratios | little effect on different CYP isoforms | 
CNC(=O)c1cc(Br)cc([N+](=O)[O-])c1N[C@@H]1CCOC[C@@H]1NC(=O)c1cncc2ccccc12 [Compound 70, N-((3R, 4R)-4-((4-bromo-2-(methylcarbamoyl)-6-nitrophenyl)amino)tetrahydro-2H-pyran-3-yl)isoquinoline-4-carboxamide] |  | 100 to 1000 | 100 to 1000 |  |  |  |  | 
C[C@H](NC(=O)c1cc(Br)cc([N+](=O)[O-])c1N[C@@H]1COCC[C@@H]1NC(=O)c1cncc2ccccc12)C(F)(F)F [Compound 135, N-((3S, 4S)-3-((4-bromo-2-nitro-6-(((S)-1,1,1-trifluoropropan-2-yl)carbamoyl)phenyl)amino)tetrahydro-2H-pyran-4-yl)isoquinoline-4-carboxamide] |  | < 100 | < 100 |  |  |  |  | 
